Experimental data reported in US12559505B2, “IDH mutant inhibitor and use thereof” (WIGEN BIOMEDICINE TECHNOLOGY (SHANGHAI) CO., LTD., priority 2020, dated 2026).
Read-outs that look alike come from different tables or passages of the source.

What was measured:
[1] = system: 2-HG in HT1080 tumor tissues; assay: Detection of 2-HG in HT1080 tumor tissues of nude mice; format: in vivo; details: Mus musculus, HT-1080, sc, subcutaneous HT1080, 20 mg/kg
Procedure: Nude mice were inoculated subcutaneously with 1×10^6 HT1080 cells. When the tumor volume reached 100-150 mm^3, the mice were randomly grouped into solvent control group and compounds 1, 70, 79, 85, 96, 139, 157 and LY-3410738 20 mg/kg groups. The tumors were collected three days and seven days after continuous administration, weighed, digested with a digestion solution and then homogenized. The level of 2-HG in the tumor tissues were determined by LC-MS-MS. The percentage inhibition of compounds on 2-HG in tumor tissues was calculated as compared with the control.

IDH R132C = molecular target: T1, IDH R132C (Homo sapiens, UniProt O75874, R132C); assay: Detection of 2-HG in supernatant of U87-IDH R132C cells; format: cell-based; details: 72 h, LC-MS-MS, vs control; for inhibition at 0.001 µM: read-out: Inhibition rate of compounds on 2-HG in the supernatant of U87-IDH R132C cells, 1 nM; for inhibition at 0.01 µM: read-out: Inhibition rate of compounds on 2-HG in the supernatant of U87-IDH R132C cells, 10 nM; for inhibition at 0.1 µM: read-out: Inhibition rate of compounds on 2-HG in the supernatant of U87-IDH R132C cells, 100 nM
T1 construct: expressed in transfected cells; host or cells: U87 cells
T1 sequence (O75874 whole entry R132C): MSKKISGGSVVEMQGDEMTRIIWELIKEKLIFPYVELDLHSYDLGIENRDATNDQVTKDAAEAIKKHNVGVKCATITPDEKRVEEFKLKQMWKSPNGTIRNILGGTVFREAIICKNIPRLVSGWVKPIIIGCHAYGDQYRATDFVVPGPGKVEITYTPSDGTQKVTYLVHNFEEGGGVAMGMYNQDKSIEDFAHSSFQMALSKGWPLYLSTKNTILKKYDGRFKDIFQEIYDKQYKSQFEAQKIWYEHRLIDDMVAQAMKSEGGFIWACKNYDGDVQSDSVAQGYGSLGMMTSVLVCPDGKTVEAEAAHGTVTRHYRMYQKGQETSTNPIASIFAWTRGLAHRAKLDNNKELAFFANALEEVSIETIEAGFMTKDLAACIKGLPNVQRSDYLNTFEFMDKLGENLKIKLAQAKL
Procedure: U87 cells overexpressing the IDH R132C mutation were seeded in a 48-well plate at 50,000 cells/well. After the cells were incubated overnight for adhesion, the supernatant was removed. The cell culture media containing serially diluted compounds were added, and the cells were incubated for 72 h. After 72 h, the cultures were collected and diluted 10-fold with water, and acetonitrile was added to extract the metabolites. The 2-HG content in the cultures was analyzed by LC-MS-MS, and the percentage inhibition of compounds on 2-HG in the supernatant was calculated as compared with the control.

[2] = 72 h, three days of continuous administration, read-out: Inhibition rate of compounds on 2-HG in HT1080 tumor tissues, 3 days
[3] = 168 h, seven days of continuous administration, read-out: Inhibition rate of compounds on 2-HG in HT1080 tumor tissues, 7 days

Structure (SMILES)	inhibition in vivo at 20 mg/kg [1, 2] [%]	inhibition in vivo at 20 mg/kg [1, 3] [%]	inhibition at 0.001 µM (IDH R132C; 1 nM compound) [%]	inhibition at 0.01 µM (IDH R132C; 10 nM compound) [%]	inhibition at 0.1 µM (IDH R132C; 100 nM compound) [%]	Inhibition rate of compounds on 2-HG in the supernatant of U87-IDH R132C cells, 1 nM (IDH R132C; 1 nM compound)	Inhibition rate of compounds on 2-HG in the supernatant of U87-IDH R132C cells, 10 nM (IDH R132C; 10 nM compound)	Inhibition rate of compounds on 2-HG in the supernatant of U87-IDH R132C cells, 100 nM (IDH R132C; 100 nM compound)
C=CC(=O)N1CCN(C(CC23CC(C2)C3)c2ccc([C@H](C)Nc3ncc4c(n3)N(CC)C(=O)NC4)cc2)CC1 (some centres unmarked) [Compound 70]	62 ± 8	92 ± 5	60 to 90	> 90	> 90	–	–	–
C=CC(=O)N1CCN([C@@H](CC2CC2)c2ccc([C@H](C)Nc3ncc4c(n3)N(CC)C(=O)OC4)cc2)CC1 [LY-3410738, reference compound]	58 ± 11	88 ± 12	30 to 60	> 90	> 90	–	–	–
C=CC(=O)N1CCN(C(CC2CCC2)c2ccc([C@H](C)Nc3ncc4c(n3)N(CC)C(=O)OC4)cc2)CC1 (stereo partly drawn) [Compound 139, 7-(((1S)-1-(4-(1-(4-acryloylpiperazin-1-yl)-2-cyclobutylethyl)-phenyl)ethyl)amino)-1-ethyl-1,4-dihydro-2H-pyrimido[4,5-d][1,3]oxazin-2-one]	57 ± 1.8	99 ± 0.4	–	–	–	–	–	–
C=CC(=O)NC1CCN(C(CC2CC2)c2ccc([C@H](C)Nc3ncc4cnc(=O)n(C(C)C)c4n3)cc2)CC1 (some centres unmarked) [Compound 96]	29 ± 38	78 ± 4	–	–	–	–	–	–
C=CC(=O)N1CCN([C@H](CC2CC2)c2ccc([C@H](C)Nc3ncc4cnc(=O)n(CC)c4n3)cc2)CC1 [Compound 114-2]	–	–	30 to 60	> 90	> 90	–	–	–
C=CC(=O)NC1CCN(C(CC2CC2)c2ccc([C@H](C)Nc3ncc4c(n3)N(CC)C(=O)OC4)cc2)CC1 (some centres unmarked) [Compound 11]	–	–	30 to 60	> 90	> 90	–	–	–
C=CC(=O)N1CCN(C(CC(C)(C)C)c2ccc([C@H](C)Nc3ncc4cnc(=O)n(C(C)C)c4n3)cc2)CC1 (some centres unmarked) [Compound 124]	–	–	30 to 60	60 to 90	> 90	–	–	–
C=CC(=O)N1CCN(C(CC2CC2)c2ccc(C3(Nc4ncc5c(n4)N(C(C)C)C(=O)OC5)CC3)cc2)CC1 (centres unmarked) [Compound 148]	–	–	< 30	60 to 90	> 90	–	–	–
C=CC(=O)N1CCN([C@@H](CC2CC2)c2ccc([C@H](C)Nc3ncc4c(n3)N(C(C)C)C(=O)OC4)cc2)CC1 [Compound 147-1]	–	–	60 to 90	> 90	> 90	–	–	–
C=CC(=O)N1CC2(C1)CN(C(CC(C)(C)C)c1ccc([C@H](C)Nc3ncc4c(n3)N(CC)C(=O)OC4)cc1)C2 (some centres unmarked) [Compound 59]	–	–	30 to 60	60 to 90	> 90	–	–	–
C=CC(=O)N1CC2(C1)CN(C(CC1CC1)c1ccc([C@H](C)Nc3ncc4c(n3)N(CC(C)C)C(=O)OC4)cc1)C2 (some centres unmarked) [Compound 54]	–	–	60 to 90	60 to 90	> 90	–	–	–
C=CC(=O)N1CC2(C1)CN(C(CC(C)C)c1ccc([C@H](C)Nc3ncc4c(n3)N(CC)C(=O)OC4)cc1)C2 (some centres unmarked) [Compound 41]	–	–	30 to 60	> 90	> 90	–	–	–
C=CC(=O)N(C)C1CCN(C(CC2CC2)c2ccc(C3(Nc4ncc5c(n4)N(CC)C(=O)OC5)CC3)cc2)CC1 (centres unmarked) [Compound 29]	–	–	< 30	60 to 90	> 90	–	–	–
C=CC(=O)N1CCN(C(CC)c2ccc([C@H](C)Nc3ncc4c(n3)N(C(C)C)C(=O)NC4)cc2)CC1 (some centres unmarked) [Compound 80]	–	–	30 to 60	60 to 90	> 90	–	–	–
C=CC(=O)NC1CCN(C(CC2CC2)c2ccc([C@H](C)Nc3ncc4c(n3)N(C(C)C)C(=O)OC4)cc2)CC1 (some centres unmarked) [Compound 22]	–	–	< 30	60 to 90	> 90	–	–	–
C=CC(=O)N1CC2(C1)CN(C(CC1CC1)c1ccc(C3(Nc4ncc5c(n4)N(C(C)C)C(=O)OC5)CC3)cc1)C2 (centres unmarked) [Compound 31]	–	–	< 30	60 to 90	> 90	–	–	–
C=CC(=O)N1CC2(C1)CN(C(CC13CC(C1)C3)c1ccc([C@H](C)Nc3ncc4c(n3)N(CC)C(=O)NC4)cc1)C2 (some centres unmarked) [Compound 72]	–	–	60 to 90	> 90	> 90	–	–	–

Structure (SMILES)	inhibition in vivo at 20 mg/kg [1, 2] [%]	inhibition in vivo at 20 mg/kg [1, 3] [%]	inhibition at 0.001 µM (IDH R132C; 1 nM compound) [%]	inhibition at 0.01 µM (IDH R132C; 10 nM compound) [%]	inhibition at 0.1 µM (IDH R132C; 100 nM compound) [%]	Inhibition rate of compounds on 2-HG in the supernatant of U87-IDH R132C cells, 1 nM (IDH R132C; 1 nM compound)	Inhibition rate of compounds on 2-HG in the supernatant of U87-IDH R132C cells, 10 nM (IDH R132C; 10 nM compound)	Inhibition rate of compounds on 2-HG in the supernatant of U87-IDH R132C cells, 100 nM (IDH R132C; 100 nM compound)
C=CC(=O)N1CCN([C@H](CC23CC(C2)C3)c2ccc([C@H](C)Nc3ncc4c(n3)N(CC)C(=O)OC4)cc2)CC1 [Compound 157-2]	–	–	30 to 60	60 to 90	> 90	–	–	–
C=CC(=O)N1CCN(C(CC2(C)CC2)c2ccc([C@H](C)Nc3ncc4cnc(=O)n(CC)c4n3)cc2)CC1 (some centres unmarked) [Compound 131]	–	–	60 to 90	> 90	> 90	–	–	–
C=CC(=O)N1CCN(C(CC2(C)CC2)c2ccc([C@H](C)Nc3ncc4c(n3)N(CC)C(=O)OC4)cc2)CC1 (some centres unmarked) [Compound 156]	–	–	60 to 90	> 90	> 90	–	–	–
C=CC(=O)N1CC2(CC([C@H](CC)c3ccc(CNc4ncc5c(n4)N(CC)C(=O)OC5)cc3)C2)C1 [Compound 36-2]	–	–	–	–	–	B (B represents an inhibition rate greater than 60% but less than or equal to 90%)	B (B represents an inhibition rate greater than 60% but less than or equal to 90%)	A (A represents an inhibition rate greater than 90%)
C=CC(=O)N(C)C1CN(C(CC2CC2)c2ccc([C@H](C)Nc3ncc4c(n3)N(CC)C(=O)OC4)cc2)C1 (some centres unmarked) [Compound 19]	–	–	30 to 60	> 90	> 90	–	–	–
C=CC(=O)N1CCN([C@@H](CC)c2ccc([C@H](C)Nc3ncc4cnc(=O)n(CC)c4n3)cc2)CC1 [Compound 116-1]	–	–	60 to 90	> 90	> 90	–	–	–
C=CC(=O)N(C)C1CN(C(CC2CC2)c2ccc([C@H](C)Nc3ncc4c(n3)N(C(C)C)C(=O)OC4)cc2)C1 (some centres unmarked) [Compound 25]	–	–	30 to 60	> 90	> 90	–	–	–
C=CC(=O)N1CCN([C@H](CC2CC2)c2ccc([C@H](C)Nc3ncc4c(n3)N(C(C)C)C(=O)OC4)cc2)CC1 [Compound 147-2]	–	–	30 to 60	60 to 90	> 90	–	–	–
C=CC(=O)N1CC2(C1)CN(C(CC1(C)CC1)c1ccc([C@H](C)Nc3ncc4c(n3)N(CC)C(=O)NC4)cc1)C2 (some centres unmarked) [Compound 71]	–	–	30 to 60	> 90	> 90	–	–	–
C=CC(=O)NC1CN(C(CC2CC2)c2ccc([C@H](C)Nc3ncc4c(n3)N(CC)C(=O)OC4)cc2)C1 (some centres unmarked) [Compound 14]	–	–	30 to 60	> 90	> 90	–	–	–
C=CC(=O)N1CC2(C1)CN(C(CC1CC1)c1ccc([C@H](C)Nc3ncc4cnc(=O)n(C(C)C)c4n3)cc1)C2 (some centres unmarked) [Compound 86]	–	–	60 to 90	60 to 90	> 90	–	–	–
C=CC(=O)N1CC2(C1)CN([C@@H](CC)c1ccc([C@H](C)Nc3ncc4c(n3)N(CC)C(=O)OC4)cc1)C2 [Compound 36-1]	–	–	60 to 90	> 90	> 90	–	–	–
C=CC(=O)N1CCN(C(CC2CCC2)c2ccc([C@H](C)Nc3ncc4cnc(=O)n(C(C)C)c4n3)cc2)CC1 (some centres unmarked) [Compound 125]	–	–	30 to 60	60 to 90	> 90	–	–	–
C=CC(=O)NC1CN(C(CC2CC2)c2ccc(C3(Nc4ncc5c(n4)N(CC)C(=O)OC5)CC3)cc2)C1 (centres unmarked) [Compound 28]	–	–	< 30	60 to 90	> 90	–	–	–
C=CC(=O)N1CCN(C(CC2(C)CC2)c2ccc([C@H](C)Nc3ncc4c(n3)N(CC)C(=O)NC4)cc2)CC1 (some centres unmarked) [Compound 69]	–	–	30 to 60	> 90	> 90	–	–	–
C=CC(=O)N1CCN(C(CC(C)(C)C)c2ccc([C@H](C)Nc3ncc4c(n3)N(C(C)C)C(=O)OC4)cc2)CC1 (some centres unmarked) [Compound 146]	–	–	30 to 60	60 to 90	> 90	–	–	–
C=CC(=O)N1CCN([C@H](CC23CC(C2)C3)c2ccc([C@H](C)Nc3ncc4c(n3)N(CC)C(=O)NC4)cc2)CC1 [Compound 70-2]	–	–	60 to 90	60 to 90	> 90	–	–	–
